Experimental data taken from patent publication US9556156B2, “Compounds, their synthesis and their uses” (priority 2012, dated 2017).
Where two headings read alike, the source gives them in different places.

System: Sprague Dawley (SD) rat
Format: in vivo
Experimental: The general anesthetic activity of Propofol novel drug compound 1004 was evaluated in rats. All animal experiments were performed as per CPCSEA guidelines. The studies were carried out in Sprague Dawley (SD) rat in the weight range […] by intravenous tail vein dosing over a period of 10 seconds. The formulations of the compound 1004 for IV dosing in rats were prepared in pre-mix PEG400 and saline. Formulations of 1004 equivalent to 5 mpk (14 mpk of compd. 1004) and 7.5 mpk (equivalent to 21 mpk of compound 1004) of parent drug Propofol were prepared in 15% PEG400 and 85% normal saline. The monitoring of distinguishable levels of sedation was started during the dosing period and continued till animals regained consciousness. The onset, duration of sleep and recovery time was recorded.

SMILES | General Anesthesia (GA) (rat, in vivo) | Recovery (rat, in vivo) | Recovery (SD rat, IV tail vein, Propofol Eq. 7.5 mpk, vehicle 15% PEG400, 85% NS) | General Anesthesia (GA) (onset of GA, SD rat, IV tail vein over 10 seconds, Propofol Eq. 7.5 mpk, vehicle 15% PEG400, 85% NS)
CC(C)c1cccc(C(C)C)c1O [Propofol, 2,6-diisopropylphenol] | No GA | Complete | – | –
CNC(=O)c1ccc[n+](COC(=O)Oc2c(C(C)C)cccc2C(C)C)c1.[I-] [Compound 1004, 1-(((2,6-diisopropylphenoxy)carbonyloxy)methyl)-3-(methylcarbamoyl)pyridinium iodide] | – | – | Complete | After 1 min
